Source: patent US20220288082A1, “TREATMENT OF DEMENTIA” (Macquarie University, priority 2019, published 2022)

What was measured:
APP23 mice [1] = test: Morris water maze memory testing after chronic treatment; assay type: in vivo, mouse
Method: (§1) FIG. 4. LIMK1 inhibition reduced susceptibility to induced seizures and mitigated neuronal network hypersynchronicity and memory deficits in a mouse model of Alzheimer's disease. (A) Excitotoxic seizures were induced by acute intraperitoneal injection of 50 mg/kg body weight pentylenetetrazole (PTZ) followed by timing and scoring (0=no seizures to 7=terminal status epilepticus) of seizure development. Mice were treated with vehicle or 10 mg/kg body weight LIMK1 inhibitor (LIMKi) intraperitoneally 30 minutes prior to seizure induction. […] Only vehicle-treated mice develop severe seizure stages over time (i.e. score=5). […] (B) Compound hippocampal electroencephalography (EEG) recordings over 4 hours in non-transgenic (wt) and APP transgenic (APP23) mice including 2 hours before (Pre) and 2 hours after (Post) LIMKi or vehicle administration. Time of intraperitoneal LIMKi and vehicle administration is indicated with an arrow. […] Frequent spikes pre and post vehicle administration in APP23 mice. In contrast, LIMKi injection mitigates spike activity in APP23 post injection. […] (E) Chronic Limkl inhibition reverts memory deficits in AD mice. APP23 mice develop memory deficits in the Morris water maze (MWM) paradigm at 3 months of age. Treatment with 10 mg/kg LIMKi i.p. (3-4 times per week) was initiated at 3 months of age and continued for =4 months before MWM testing at 7 months of age. […] For bar graphs in (C) and (E), from left to right: non-Tg +vehicle; non-Tg+LIMKi; APP23+vehicle; APP23+LIMKi.
Memory testing. Memory of mice was assessed in the water T maze paradigm and Morris water maze following published protocols (Ittner et al., 2010, Cell 142, 387-397; Ke et al., 2015, Acta Neuropathol 130, 661-678). Chronic treatment of mice was done by 3-4 times per week intraperitoneal injection of 10 mg/kg LIMKi or vehicle (0.5% hydroxypropyl methylcellulose 606 (HPMC 606), 0.5% polyvinylpyrrolidone k17 (PVP k17) and 0.1% tween 80) starting at 3 months of age and continued until 7 months of age. All mice were acclimatized to the test rooms prior to testing.
Encouraged by the short-term effects of Compound 1 in neurons and APP23 mice (Example 3), the inventors tested whether long-term treatment could improve memory deficits in APP23 mice. 3-month old APP23 mice were treated for four months before being subjected to memory testing in the MWM. APP23 mice present with significant memory deficits at 3 months of age, that progress with age (Ittner et al., 2016, Science 354:904-908). An intermittent treatment schedule was chosen to avoid potential inhibition of astrocyte-mediated AP clearance that could mask therapeutic effects. At 7 months of age, vehicle-treated APP23 mice presented with significant memory deficits as compared to vehicle-treated non-transgenic mice (FIG. 4E).

C57B^1/6 mice = test: PTZ-induced excitotoxic seizure model; assay type: in vivo, mouse; settings: for mean seizure severity: n=9
Method: as §1
Seizure model. Excitotoxic seizure were induced in mice by intraperitoneal injection of 50 mg/kg body weight pentylenetetrazole followed by observation in a square area (40×40 cm). Scoring of seizures was done as previously described (Ittner et al., 2010, Cell 142, 387-397). For LIMKi-treated mice, scoring was adjusted by combining the severe seizure scores 5 to 7 into a single score of 5. For both scales, minor to moderate seizures are reflected by scores <5.

LIMK1 = molecular target: T1, LIMK1 (Homo sapiens, UniProt P53667); test: LIMK1 activity assay (commercial, Promega); assay type: biochemical; settings: in vitro; LIMKi at 100 μm, 10 μm, 1 μm, 0.1 μm; DMSO did not inhibit
T1 construct: purchased Promega
T1 sequence (P53667 whole entry): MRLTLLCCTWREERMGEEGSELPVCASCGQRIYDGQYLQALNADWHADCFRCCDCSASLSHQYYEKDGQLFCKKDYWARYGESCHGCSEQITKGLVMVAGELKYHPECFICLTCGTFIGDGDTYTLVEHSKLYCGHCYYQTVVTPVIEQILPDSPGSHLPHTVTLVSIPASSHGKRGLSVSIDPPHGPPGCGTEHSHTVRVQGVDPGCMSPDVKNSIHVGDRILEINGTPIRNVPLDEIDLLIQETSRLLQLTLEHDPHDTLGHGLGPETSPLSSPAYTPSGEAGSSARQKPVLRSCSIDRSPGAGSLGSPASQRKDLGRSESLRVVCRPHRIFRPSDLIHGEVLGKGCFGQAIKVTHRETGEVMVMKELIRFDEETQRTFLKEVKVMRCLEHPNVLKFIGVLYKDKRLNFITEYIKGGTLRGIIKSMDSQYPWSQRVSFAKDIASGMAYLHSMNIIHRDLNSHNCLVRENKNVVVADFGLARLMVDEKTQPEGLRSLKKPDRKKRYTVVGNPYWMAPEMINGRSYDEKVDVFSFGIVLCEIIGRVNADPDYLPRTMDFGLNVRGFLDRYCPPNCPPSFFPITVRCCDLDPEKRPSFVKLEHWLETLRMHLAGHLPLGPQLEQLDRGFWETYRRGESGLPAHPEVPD
From the text: LIMK1 activity assay. LIMK1 activity in the absence or presence of different concentrations of LIMKi (or DMSO) was determine with a commercial assay following the manufacturer's instructions (Promega).

[2] = system: C57B^1/6 primary mouse neurons; test: Aβ toxicity in cultured primary neurons (dendritic spine loss, cell viability); assay type: cell-based; settings: pre-treatment, 0.05 μM oligomeric Aβ
Method: C57B^1/6 primary mouse neurons were treated with Compound 1 shown below (also referred to herein as LIMKi) together with 0.05 μM oligomeric Aβ (oAβ ) and determined loss of dendritic spines and cell viability.
Aβ treated neurons presented with loss of spines and reduced viability. […] Next, the inventors determined the potential short-term effects of Compound 1 in vivo. […] Next, the inventors tested the effects of acute Compound 1 administration on neuronal network activity in APP23 mice. […] Furthermore, CFC 1 hour after Compound 1 administration was re-established (data not shown). […] Thus, inhibition of LIMK1 with Compound 1 conferred protection from Aβ toxicity in neurons and from excitotoxicity in vivo. Furthermore, treatment of APP23 with Compound 1 corrected network aberrations including CFC.

APP23 mice [3] = test: Hippocampal telemetric EEG recordings (spikes, cross frequency coupling); assay type: in vivo, mouse; settings: for amplitude phase in EEG recordings / modulation index of cross frequency coupling / spike frequency / hypersynchronous discharges in EEG: n=8; for spike frequency / hypersynchronous discharges in EEG: i.p., 2 hours pre vs 2 hours post administration
Method: as §1
Electroencephalography. Hippocampal EEG recordings were done with implanted telemetric electrodes (D.S.I.) as previously described (Ittner et al., 2014, Acta neuropathologica communications 2, 149). All recordings were done with mice individually housed in their home cages one week after implantation of transmitters. Compound administration was done intraperitoneally during transient restraining of mice. Vehicle for the LIMK1 inhibitor LIMKi contained hydroxypropyl methylcellulose 606 (HPMC 606) with polyvinylpyrrolidone k17 (PVP k17) and tween 80 in a proportion of 0.5%, 0.5%, 0.1%, respectively. Spike analysis was done with the Neuroscore software module (D.S.I.) as previously described (Ittner et al., 2016, Science 354, 904-908). Cross frequency coupling of theta and gamma waves was performed as previously described (Ittner et al., 2016, Science 354, 904-908).

[4] = 10 mg/kg i.p. 30 minutes prior to 50 mg/kg PTZ, vs vehicle
[5] = APP23 mice, 1 hour after administration
[6] = APP23 mice, 1 hour after administration, listed as LIMKi

Structure (SMILES): Cc1c[nH]c2ncnc(N3CCN(/C(=N\C#N)Nc4cccc(Br)c4)[C@@H](C)C3)c12 [Compound 1]
- time in target quadrant during MWM probe trials (APP23 mice [1]; APP23 mice, 10 mg/kg i.p. 3-4 times per week for 4 months, n=8-10): no significant differences to controls
- learning in Morris water maze (APP23 mice [1]; APP23 mice, 10 mg/kg i.p. 3-4 times per week from 3 to 7 months of age): improved learning of APP23 mice to vehicle control levels
- memory performance in MWM (APP23 mice [1]; APP23 mice, after four months of treatment, tested at 7 months of age): improved memory performance
- learning in Morris water maze (APP23 mice [1]; non-transgenic control mice, 10 mg/kg i.p. 3-4 times per week for 4 months, 10 mg/kg): delayed learning
- learning in Morris water maze (APP23 mice [1]; non-transgenic control mice, 10 mg/kg i.p. 3-4 times per week for 4 months, listed as LIMKi, 10 mg/kg): moderately delayed learning
- latency to develop severe seizures (C57B^1/6 mice; 10 mg/kg 30 minutes prior to PTZ, C57B1/6 mice): increased the latency to develop severe seizures
- latency to develop lower grade seizures (score<5) (C57B^1/6 mice; [4]): Delayed latency to develop lower grade seizures
- mean seizure severity (C57B^1/6 mice; [4]): significantly reduced mean seizure severity
- mean seizure severity (C57B^1/6 mice; 10 mg/kg i.p. 30 minutes prior to 50 mg/kg PTZ, vs vehicle, listed as LIMKi): Significantly reduced seizure severity
- LIMK1 activity (LIMK1): inhibition of the kinase by LIMKi at all concentrations tested
- Aβ-induced death of cultured neurons (cell viability) [2]: dose-dependent protection
- Aβ-induced dendritic spine loss [2]: dose-dependent protection
- cross frequency coupling (CFC) (APP23 mice [3]; APP23 mice, 1 hour after administration, data not shown): re-established
- amplitude phase in EEG recordings (APP23 mice [3]; [5]): normalized
- modulation index of cross frequency coupling (APP23 mice [3]; [5]): normalized
- amplitude phase in EEG recordings (APP23 mice [3]; [6]): corrected 1 hour after LIMKi delivery and no longer different from wt controls
- modulation index of cross frequency coupling (APP23 mice [3]; [6]): corrected 1 hours after LIMKi administration and no longer different from wt controls
- spike frequency / hypersynchronous discharges in EEG (APP23 mice [3]; APP23 mice): hypersynchronicity significantly decreased
- spike frequency / hypersynchronous discharges in EEG (APP23 mice [3]; APP23 mice, listed as LIMKi): significantly reduced spike frequency
- spike activity in EEG (APP23 mice [3]; non-transgenic (wt) mice, pre and post injection): No overt spike activity
